Measured values from patent US10639313B2, “Compound for inhibition of delta-5-desaturase (D5D) and treatment of cancer and inflammation” (NDSU Research Foundation, priority 2017, dated 2020).
pIC50: −log10 of the molar value. “And” between values parts separate entries of the source, which are not always exact repeats. Identical values can stand only once. Like-named read-outs stand apart in the source and are kept apart here.

Legend:
[1] = test system: HCA-7/C29 cells; experiment: 8-HOA formation from cellular COX-2-catalyzed DGLA peroxidation (GC/MS) in HCA-7/C29; assay type: cell-based, human; conditions: 10 μM compound, DGLA-enriched medium, threshold >0.5 μM in 10^6 cells, control 0.33
Experimental: (§1) Colony formation assay was conducted in a total of three human cancer cell lines featuring high levels of COX-2, including HCA-7 (colon cancer), A549 (non-small cell lung cancer), BxPC-3 (pancreatic cancer), upon treatment of iminodibenzyl (10 μM). GC/MS was used to measure 8-HOA formation as described elsewhere.

[2] = molecular target: T1, D5D (Rattus norvegicus, UniProt Q920R3); experiment: Rat liver microsomal assay, conversion of DGLA to AA by D5D; assay type: biochemical
T1 construct: Rat liver microsomal assay was conducted
T1 sequence (Q920R3 whole entry): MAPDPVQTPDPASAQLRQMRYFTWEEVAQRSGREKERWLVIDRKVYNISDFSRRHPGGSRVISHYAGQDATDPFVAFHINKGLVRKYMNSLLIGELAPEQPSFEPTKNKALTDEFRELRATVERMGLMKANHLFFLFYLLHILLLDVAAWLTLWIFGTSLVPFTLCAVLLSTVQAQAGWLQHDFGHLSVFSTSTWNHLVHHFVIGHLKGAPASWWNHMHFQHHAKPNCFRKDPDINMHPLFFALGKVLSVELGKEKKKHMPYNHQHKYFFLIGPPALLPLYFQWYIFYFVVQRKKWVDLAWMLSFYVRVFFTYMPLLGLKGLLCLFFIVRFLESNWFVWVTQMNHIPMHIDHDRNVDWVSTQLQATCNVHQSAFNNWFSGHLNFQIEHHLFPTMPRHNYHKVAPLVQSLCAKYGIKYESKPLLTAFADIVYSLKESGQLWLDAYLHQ

[3] = test system: HCA-7 xenograft tumor; experiment: Xenograft tumor model, nude mice bearing HCA-7; assay type: in vivo; conditions: HCA-7 tumor; for [8-HOA]: control 0.03
Experimental: (§2) About two million of selected cancer cells, suspended in 50 μL of PBS, were implanted into hind flank of nude mice. Feeding with standard diet for two weeks after the cell implantation (to allow tumors reach the certain size), mice were then placed into the treatment groups. Twenty mice were randomly divided to four experimental groups (vehicle control, DGLA, […] inhibitor, and DGLA+D5D inhibitor combination) in each treatment regime to assess their anti-tumor responses. Two treatment regimes (e.g., treatment applied on every other day or every day up to 4-week) were assessed for their anti-tumor responses in HAC-7 and A459 tumor models. Every day treatment plan was listed in FIG. 9 as xenograft models and treatment example. Tumor growth was monitored twice a week using a digital caliper as well as via ultrasound image system for treatment outcome. Tumor volume was calculated: V=L×W2/2. At the endpoint (4-week treatment), the mice were euthanized, and the tumor tissues were collected, weighted, conducted for other analysis.

[4] = test system: A549 xenograft tumor; experiment: Xenograft tumor model, nude mice bearing A549; assay type: in vivo; conditions: for Tumor Growth Reduction % (vs. Control) / [8-HOA]: A549 (printed A459) tumor, every day, 4-week, DGLA 5 mg/mouse oral, iminodibenzyl 15 mg/kg i.p.; for [8-HOA]: control 0.02
Experimental: as §2, with “analysis. Tumor Growth Reduction Rate (%, Tables 5, 7) in each experiment after 4-week treatment was used to assess their associated anti-tumor responses: […]” for “analysis.”

[5] = test system: Lewis Lung Carcinoma Cells (LLC); experiment: Lewis Lung Carcinoma primary tumor growth and metastatic lung tumor formation; assay type: in vivo, C57/B6 mice; conditions: for Primary Tumor size (mm^3) / 8-HOA (μM) in Blood / Reduced Tumor Growth vs. V.C.: dose every day; for Primary Tumor size (mm^3) / Reduced Tumor Growth vs. V.C.: DGLA 5 mg/mouse, iminodibenzyl i.p. 15 mg/kg; for 8-HOA (μM) in Blood: vehicle 0.015; for Reduced Tumor Growth vs. V.C.: primary tumor; for mice that developed metastatic lung tumor: four-week treatment, Day 28 (combination up to Day 31)
Experimental: One million Lewis Lung Carcinoma Cells (LLC,), suspended in 50 μL of PBS, were implanted into front/hind flanks (0.5 million each) of C57/B6 mice. A total of twenty […] mice were divided to four groups: six in vehicle control, six in DGLA+iminodibenzyl combination, three in DGLA (oral), and five in iminodibenzyl (i.p.) group. Every day treatment regimen was started one-week after LLC cells implanted into mice blank. Primary tumor growth was monitored twice a week using a digital caliper as well as via ultrasound image system for treatment outcome. Tumor volume was calculated: […] Tumor Growth Reduction Rate (%, Table 8) in each experiment after 4-week treatment was used to assess their associated anti-tumor responses: […]

[6] = test system: BxPC-3 xenograft tumor; experiment: Xenograft tumor model, nude mice bearing BxPC-3; assay type: in vivo; conditions: BxPC-3 tumor, twice/week up to 4-week, gemcitabine 30 mg/kg, DGLA 8 mg/mouse, iminodibenzyl 25 mg/kg
[7] = test system: HCA-7 (colon cancer); experiment: Colony formation assay / cell survival, HCA-7; assay type: cell-based, human; conditions: for Cell Survival Rate: HCA-7/C29, DGLA-enriched media, control 100%
Experimental: as §1

[8] = test system: BxPC-3 (pancreatic cancer); experiment: Colony formation assay / cell survival, BxPC-3; assay type: cell-based, human; conditions: 10 μM, DGLA-enriched media, control 100%
Experimental: as §1

[9] = test system: BxPC-3 cells; experiment: 8-HOA formation from COX-2-catalyzed DGLA peroxidation (GC/MS) in BxPC-3; assay type: cell-based, human; conditions: 10 μM, DGLA-enriched media, control 0.26
Experimental: as §1

[10] = test system: A549 cells; experiment: 8-HOA formation from COX-2-catalyzed DGLA peroxidation (GC/MS) in A549; assay type: cell-based, human; conditions: A549 (A-495 [sic]) cells; 10 μM; DGLA-enriched media; control 0.29
Experimental: as §1

[11] = test system: A549 (non-small cell lung cancer); experiment: Colony formation assay / cell survival, A549; assay type: cell-based, human; conditions: A549 (A-495 [sic]), 10 μM, DGLA-enriched media, control 100%
Experimental: as §1

[12] = every day, 4-week, DGLA 5 mg/mouse oral, iminodibenzyl 15 mg/kg i.p.
[13] = inhibition of D5D conversion of DGLA to AA, rat liver microsomes, read-out: IC50 (rat microsome)

For `CC(C)CCOc1ccc(N)cc1` [CP-24879, reference compound], the “[8-HOA] (HCA-7 cells)” value [1] was 0.42 µM.
For `COc1cc(/C=C/C(=O)CC(=O)/C=C/c2ccc(O)c(OC)c2)ccc1O` [Cucurmin, curcumin, reference compound], the “[8-HOA] (HCA-7 cells)” value [1] was 0.43 µM and the pIC50 [2] was 6.83.
`CCCCC/C=C\C/C=C\C/C=C\CCCCCCC(=O)O` [DGLA, dihomo-γ-linolenic acid] was tested, and the “Tumor Growth Reduction % (vs. Control)” value [3, 12] was “did not deliver any inhibitory effect on tumor growth”, the “[8-HOA]” value [3, 12] was 0.27 µg/g and the “Tumor Growth Reduction % (vs. Control)” value [4] was “did not deliver any inhibitory effect on tumor growth”. For the same compound, the “[8-HOA]” value [4] was 0.22 µg/g, the “Primary Tumor size (mm^3)” value ([5]; Day 14, vehicle 128) was 106 mm^3 and the “Primary Tumor size (mm^3)” value ([5]; Day 21, vehicle 916) was 908 mm^3. For the same compound, the “Primary Tumor size (mm^3)” value ([5]; Day 28, vehicle 2956) was 2631 mm^3, the “8-HOA (μM) in Blood” value ([5]; Day 28) was 0.31 µM and the “Reduced Tumor Growth vs. V.C.” value ([5]; Day 28) was “unable to inhibit primary tumor growth”. For the same compound, the “mice that developed metastatic lung tumor” value [5] was “All three mice in this group developed lung tumors”.
`Nc1ccn([C@@H]2O[C@H](CO)[C@@H](O)C2(F)F)c(=O)n1` [Gemcitabine] was tested, and the “Tumor Growth Reduction % (vs. Control)” value [6] was 24% and the “Tumor Growth Reduction % (vs. Control)” value ([6]; listed as gemcitabine) was ~24%.
With `c1ccc2c(c1)CCc1ccccc1N2` [Iminodibenzyl, 10,11-dihydro-5H-dibenz[b,f]azepine] the “[PGE2] in tumors after 4-week treatment” value ([3]; 15 mg/kg every day, vehicle control 2.0 μg/g) was 1.6 µg/g, the “[AA] in tumors after 4-week treatment” value ([3]; 15 mg/kg every day, vehicle control 3.5 μg/g) was 2.2 µg/g and the “Tumor Growth Reduction % (vs. Control)” value [3, 12] was 17%. The “[8-HOA]” value [3, 12] was 0.07 µg/g, the “Tumor Growth Reduction % (vs. Control)” value ([3]; every day, 4-week, DGLA 5 mg/mouse oral, iminodibenzyl 15 mg/kg i.p., listed as Iminodibenzly) was 17% and the “Cell Survival Rate” value ([7]; 10 μM) was 66%. The “Cell Survival Rate” value ([7]; 10 μM, listed as iminodibenyl) was 66%, the viability at 10 µM ([7]; Homo sapiens, HCA-7, 48 h, read-out: cell viability) was ~66% and the “[8-HOA] (HCA-7 cells)” value [1] was 0.65 µM. The “[8-HOA] (HCA-7 cells)” value ([1]; listed as iminodibenzyl) was > 0.5 µM and 0.65 µM, the “Tumor Growth Reduction % (vs. Control)” value [4] was 40% and the “[8-HOA]” value [4] was 0.05 µg/g. For the same compound, the “Tumor Growth Reduction % (vs. Control)” value ([4]; listed as Iminodibenzly) was 40%, the “[PGE2] in tumors after 4-week treatment” value ([4]; A549 tumor, 15 mg/kg every day, vehicle control 2.0 μg/g) was 1.5 µg/g and the “[AA] in tumors after 4-week treatment” value ([4]; A549 tumor, 15 mg/kg every day, vehicle control 3.7 μg/g) was 2.5 µg/g. The “Cell Survival Rate” value [8] was 73%, the “Cell Survival Rate” value ([8]; listed as iminodibenyl) was 73% and the “[8-HOA]” value [9] was 0.53 µM. The pIC50 [2, 13] was 6.98, the “[8-HOA]” value [10] was 0.83 µM and the “Cell Survival Rate” value [11] was 22%. For the same compound, the “Cell Survival Rate” value ([11]; listed as iminodibenyl) was 22%, the “Primary Tumor size (mm^3)” value ([5]; Day 14, vehicle 128) was 87 mm^3 and the “Primary Tumor size (mm^3)” value ([5]; Day 21, vehicle 916) was 476 mm^3. For the same compound, the “Lung tumor(s) per mouse” value ([5]; Day 21, metastatic lung tumors, 1 mouse, vehicle 4) was 0, the “Primary Tumor size (mm^3)” value ([5]; Day 28, vehicle 2956) was 1153 mm^3 and the “8-HOA (μM) in Blood” value ([5]; Day 28) was 0.021 µM. The “Reduced Tumor Growth vs. V.C.” value ([5]; Day 28, listed as Iminodibenzy, 15 mg/kg) was 58%, the “Reduced Tumor Growth vs. V.C.” value ([5]; Day 28, listed as iminodibenzyl, 15 mg/kg) was 58% and the “mice that developed metastatic lung tumor” value [5] was 1 of four mice.
`C1=Cc2ccccc2Nc2ccccc21` [Iminostilbene, 5H-dibenz[b,f]azepine] was tested, and the “suppression of cancer cell growth” value ([7]; 10 μM, colon cancer cells) was “unable to suppress cancer cell growth” and the “[8-HOA] (HCA-7 cells)” value [1] was “did not promote 8-HOA formation”.
In the case of `O=c1[nH]cc(F)c(=O)[nH]1` [Molecule 5-FU, 5-fluorouracil, reference compound], the “Tumor Growth Reduction % (vs. Control)” value ([3]; twice/week up to 4-week, 5-FU 30 mg/kg, DGLA 8 mg/mouse, iminodibenzyl 25 mg/kg) was 29%.
With `c1cc2c(cc1[C@H]1OC[C@H]3[C@@H]1CO[C@@H]3c1ccc3c(c1)OCO3)OCO2` [Sesame, sesamin, reference compound] the “[8-HOA] (HCA-7 cells)” value [1] was 0.33 µM and the pIC50 [2, 13] was 6.46.
